Experimental data: patent publication US9102678B2, “Compounds and methods for inhibiting mitotic progression” (Millennium Pharmaceuticals, Inc., priority 2004, dated 2015)

What follows are compounds tested against T1, recombinant murine Aurora A enzyme (Mus musculus, UniProt P97477) (assay: Aurora A DELFIA Kinase Assay). Conditions: mouse Aurora A, 250 μM ATP; threshold less than or equal to 100 nM; read-out: IC50.
T1 construct: hexahistidine (His6) (N); made in house; host or cells: insect cells, baculovirus (Bac-to-Bac, Invitrogen)
Format: biochemical
Description: Recombinant mouse Aurora A with an amino-terminus hexahistidine tag (His-Aurora A) was expressed using a standard baculovirus vector and insect cell expression system (Bac-to-Bac®, Invitrogen).
Soluble, recombinant mouse Aurora A was purified from insect cells using Ni-NTA agarose (Qiagen) as described by the manufacturer and further purified over an S75 size exclusion column (Amersham Pharmacia Biotech).
Aurora A DELFIA® Kinase Assay
The enzymatic reaction mixture, with and without Aurora inhibitors, was incubated for 15 minutes at room temperature before termination with 100 μL of stop buffer (1% BSA, 0.05% Surfact-AMPS-20, and 100 mM EDTA). A total of 100 μL of the enzyme reaction mixture was transferred to wells of a Neutravidin-coated 96-well plate (Pierce) and incubated at room temperature for 30 minutes. The wells were washed with wash buffer (25 mM Tris, 150 mM sodium chloride, and 0.1% Tween 20) and incubated for 1 hour with 100 μL of antibody reaction mixture containing 1% BSA, 0.05% Surfact-AMPS-20, anti-phospho-PKA rabbit polyclonal antibody (1:2000, New England Biolabs), and europium labeled anti-rabbit IgG (1:2000, Perkin Elmer). The wells were washed and then the bound europium was liberated using 100 μL of Enhancement Solution (Perkin Elmer). Quantification of europium was done using a Wallac™ EnVision (Perkin Elmer).

T1 sequence (P97477 whole entry): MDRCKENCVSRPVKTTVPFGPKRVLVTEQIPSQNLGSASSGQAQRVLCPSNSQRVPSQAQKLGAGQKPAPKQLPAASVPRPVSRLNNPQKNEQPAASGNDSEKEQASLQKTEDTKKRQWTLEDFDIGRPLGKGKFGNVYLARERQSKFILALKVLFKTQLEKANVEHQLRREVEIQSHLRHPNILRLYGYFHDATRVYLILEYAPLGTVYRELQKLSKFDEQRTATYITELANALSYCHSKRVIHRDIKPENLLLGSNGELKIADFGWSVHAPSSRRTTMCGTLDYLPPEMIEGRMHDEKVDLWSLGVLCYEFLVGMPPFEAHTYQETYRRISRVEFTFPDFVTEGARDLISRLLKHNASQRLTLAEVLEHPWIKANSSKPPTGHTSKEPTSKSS

Row | IC50 [nM] | SMILES
1 | ≤ 100 | CN(CCCN)C(=O)c1ccc(Nc2ncc3c(n2)-c2ccc(Cl)cc2C(c2ccccc2F)=NC3)cc1 [Compound I-117, N-(3-Amino-propyl)-4-[9-chloro-7-(2-fluoro-phenyl)-5H-benzo[c]pyrimido[4,5-e]azepin-2-ylamino]-N-methyl-benzamide]
2 | ≤ 100 | CN1CCC(N(C)C(=O)c2ccc(Nc3ncc4c(n3)-c3ccc(Cl)cc3C(c3ccccc3F)=NC4)cc2)CC1 [Compound I-128, 4-[9-Chloro-7-(2-fluoro-phenyl)-5H-benzo[c]pyrimido[4,5-e]azepin-2-ylamino]-N-methyl-N-(1-methyl-piperidin-4-yl)-benzamide]
3 | ≤ 100 | CNCCCNC(=O)c1ccc(Nc2ncc3c(n2)-c2ccc(Cl)cc2C(c2ccccc2F)=NC3)cc1 [Compound I-130, 4-[9-Chloro-7-(2-fluoro-phenyl)-5H-benzo[c]pyrimido[4,5-e]azepin-2-ylamino]-N-(3-methylamino-propyl)-benzamide]
4 | ≤ 100 | O=C(O)c1ccc(Nc2ncc3c(n2)-c2ccc(Cl)cc2C(c2c(F)cccc2F)=NC3)cc1 [Compound I-135, 4-[9-Chloro-7-(2,6-difluoro-phenyl)-5H-benzo[c]pyrimido[4,5-e]azepin-2-ylamino]-benzoic acid]
5 | ≤ 100 | CN1CCN(C(=O)Cc2ccc(Nc3ncc4c(n3)-c3ccc(Cl)cc3C(c3ccccc3F)=NC4)cc2)CC1 [Compound I-145, 2-{4-[9-Chloro-7-(2-fluoro-phenyl)-5H-benzo[c]pyrimido[4,5-e]azepin-2-ylamino]-phenyl}-1-(4-methyl-piperazin-1-yl)-ethanone]
6 | ≤ 100 | O=C(NCCc1c[nH]cn1)c1ccc(Nc2ncc3c(n2)-c2ccc(Cl)cc2C(c2ccccc2F)=NC3)cc1 [Compound I-147, 4-[9-Chloro-7-(2-fluoro-phenyl)-5H-benzo[c]pyrimido[4,5-e]azepin-2-ylamino]-N-[2-(1H-imidazol-4-yl)-ethyl]-benzamide]
7 | ≤ 100 | Cc1ccc2c(c1)C(c1ccccc1F)=NCc1cnc(Nc3ccc(C(=O)NCCN4CCOCC4)cc3)nc1-2 [Compound I-148, 4-[7-(2-Fluoro-phenyl)-9-methyl-5H-benzo[c]pyrimido[4,5-e]azepin-2-ylamino]-N-(2-morpholin-4-yl-ethyl)-benzamide]
8 | ≤ 100 | CN(CCc1ccccn1)C(=O)c1ccc(Nc2ncc3c(n2)-c2ccc(Cl)cc2C(c2ccccc2F)=NC3)cc1 [Compound I-160, 4-[9-Chloro-7-(2-fluoro-phenyl)-5H-benzo[c]pyrimido[4,5-e]azepin-2-ylamino]-N-methyl-N-(2-pyridin-2-yl-ethyl)-benzamide]
9 | ≤ 100 | O=C(NCCc1ccccn1)c1ccc(Nc2ncc3c(n2)-c2ccc(Cl)cc2C(c2ccccc2F)=NC3)cc1 [Compound I-161, 4-[9-Chloro-7-(2-fluoro-phenyl)-5H-benzo[c]pyrimido[4,5-e]azepin-2-ylamino]-N-(2-pyridin-2-yl-ethyl)-benzamide]
10 | ≤ 100 | CN1CCN(C(=O)c2cccc(Nc3ncc4c(n3)-c3ccc(Cl)cc3C(c3ccccc3F)=NC4)c2)CC1 [Compound I-163, {3-[9-Chloro-7-(2-fluoro-phenyl)-5H-benzo[c]pyrimido[4,5-e]azepin-2-ylamino]-phenyl}-(4-methyl-piperazin-1-yl)-methanone]
11 | ≤ 100 | O=C(c1ccc(Nc2ncc3c(n2)-c2ccc(Cl)cc2C(c2ccccc2F)=NC3)cc1)N1CCN(CCN2CCCC2)CC1 [Compound I-171, 9-Chloro-7-(2-fluorophenyl)-N-(4-{[4-(2-pyrrolidin-1-ylethyl)piperazin-1-yl]carbonyl}phenyl)-5H-pyrimido[5,4-d][2]benzazepin-2-amine]
12 | ≤ 100 | O=C(O)c1ccc(Nc2ncc3c(n2)-c2ccc(Cl)cc2C(c2c(F)cccc2Cl)=NC3)cc1 [Compound I-174, 4-{[9-Chloro-7-(2-chloro-6-fluorophenyl)-5H-pyrimido-[5,4-d][2]benzazepin-2-yl]amino}benzoic acid]
13 | ≤ 100 | CC1CN(C(=O)c2ccc(Nc3ncc4c(n3)-c3ccc(Cl)cc3C(c3c(F)cccc3F)=NC4)cc2)CC(C)N1 (centres unmarked) [Compound I-175, 9-Chloro-7-(2,6-difluorophenyl)-N-{4-[(3,5-dimethylpiperazin-1-yl)carbonyl]phenyl}-5H-pyrimido[5,4-d][2]benzazepin-2-amine]
14 | ≤ 100 | CN(C)C1CCN(C(=O)c2ccc(Nc3ncc4c(n3)-c3ccc(Cl)cc3C(c3c(F)cccc3F)=NC4)cc2)C1 (centres unmarked) [Compound I-176, 9-Chloro-7-(2,6-difluorophenyl)-N-(4-{[3-(dimethylamino)pyrrolidin-1-yl]carbonyl}phenyl)-5H-pyrimido[5,4-d][2]benzazepin-2-amine]
15 | ≤ 100 | COc1cccc(F)c1C1=NCc2cnc(Nc3ccc(C(=O)N4CC(C)NC(C)C4)cc3)nc2-c2ccc(Cl)cc21 (centres unmarked) [Compound I-177, 9-Chloro-N-{4-[(3,5-dimethylpiperazin-1-yl)carbonyl]phenyl}-7-(2-fluoro-6-methoxyphenyl)-5H-pyrimido[5,4-d][2]benzazepin-2-amine]
16 | ≤ 100 | COc1cccc(F)c1C1=NCc2cnc(Nc3ccc(C(=O)N4CCC(N(C)C)C4)cc3)nc2-c2ccc(Cl)cc21 (centres unmarked) [Compound I-178, 9-Chloro-N-(4-{[3-(dimethylamino)pyrrolidin-1-yl]carbonyl}phenyl)-7-(2-fluoro-6-methoxyphenyl)-5H-pyrimido[5,4-d][2]benzazepin-2-amine]
17 | ≤ 100 | COc1cccc(F)c1C1=NCc2cnc(Nc3ccc(C(=O)N4CC(N(C)C)C4)cc3)nc2-c2ccc(Cl)cc21 [Compound I-179, 9-Chloro-N-(4-{[3-(dimethylamino)azetidin-1-yl]carbonyl}phenyl)-7-(2-fluoro-6-methoxyphenyl)-5H-pyrimido[5,4-d][2]benzazepin-2-amine]
18 | ≤ 100 | CN(C)C1CN(C(=O)c2ccc(Nc3ncc4c(n3)-c3ccc(Cl)cc3C(c3c(F)cccc3F)=NC4)cc2)C1 [Compound I-180, 9-Chloro-7-(2,6-difluorophenyl)-N-(4-{[3-(dimethylamino)azetidin-1-yl]carbonyl}phenyl)-5H-pyrimido[5,4-d][2]benzazepin-2-amine]
19 | ≤ 100 | O=C(c1ccc(Nc2ncc3c(n2)-c2ccc(Cl)cc2C(c2ccccc2F)=NC3)cc1)N1CCN(CCCN2CCCCC2)CC1 [Compound I-181, {4-[9-Chloro-7-(2-fluoro-phenyl)-5H-benzo[c]pyrimido[4,5-e]azepin-2-ylamino]-phenyl}-[4-(3-piperidin-1-yl-propyl)-piperazin-1-yl]-methanone]
20 | ≤ 100 | O=C(c1ccc(Nc2ncc3c(n2)-c2ccc(Cl)cc2C(c2ccccc2F)=NC3)cc1)N1CCN(CCN2CCCCC2)CC1 [Compound I-182, {4-[9-Chloro-7-(2-fluoro-phenyl)-5H-benzo[c]pyrimido[4,5-e]azepin-2-ylamino]-phenyl}-[4-(2-piperidin-1-yl-ethyl)-piperazin-1-yl]-methanone]
21 | ≤ 100 | CN(C)C1CCN(C(=O)c2ccc(Nc3ncc4c(n3)-c3ccc(Cl)cc3C(c3c(F)cccc3F)=NC4)cc2)CC1 [Compound I-183, {4-[9-Chloro-7-(2,6-difluoro-phenyl)-5H-benzo[c]pyrimido[4,5-e]azepin-2-ylamino]-phenyl}-(4-dimethylamino-piperidin-1-yl)-methanone]
22 | ≤ 100 | CN1CCN(C(=O)c2ccc(Nc3ncc4c(n3)-c3ccc(Cl)cc3C(c3c(F)cccc3F)=NC4)cc2)CC1 [Compound I-184, {4-[9-Chloro-7-(2,6-difluoro-phenyl)-5H-benzo[c]pyrimido[4,5-e]azepin-2-ylamino]-phenyl}-(4-methyl-piperazin-1-yl)-methanone]
23 | ≤ 100 | CN(C)CCCN(C)C(=O)c1ccc(Nc2ncc3c(n2)-c2ccc(Cl)cc2C(c2c(F)cccc2F)=NC3)cc1 [Compound I-185, 4-[9-Chloro-7-(2,6-difluoro-phenyl)-5H-benzo[c]pyrimido[4,5-e]azepin-2-ylamino]-N-(3-dimethylamino-propyl)-N-methyl-benzamide]
24 | ≤ 100 | COc1cccc(F)c1C1=NCc2cnc(Nc3ccc(C(=O)N4CCC(N(C)C)CC4)cc3)nc2-c2ccc(Cl)cc21 [Compound I-186, {4-[9-Chloro-7-(2-fluoro-6-methoxy-phenyl)-5H-benzo[c]pyrimido-[4,5-e]azepin-2-ylamino]-phenyl}-(4-dimethylamino-piperidin-1-yl)-methanone]
25 | ≤ 100 | CCCN(CCC)CCN1CCN(C(=O)c2ccc(Nc3ncc4c(n3)-c3ccc(Cl)cc3C(c3ccccc3F)=NC4)cc2)CC1 [Compound I-187, {4-[9-Chloro-7-(2-fluoro-phenyl)-5H-benzo[c]pyrimido[4,5-e]azepin-2-ylamino]-phenyl}-[4-(2-dipropylamino-ethyl)-piperazin-1-yl]-methanone]
26 | ≤ 100 | O=C(c1ccc(Nc2ncc3c(n2)-c2ccc(Cl)cc2C(c2ccccc2F)=NC3)cc1)N1CCN(CCCN2CCCC2)CC1 [Compound I-188, {4-[9-Chloro-7-(2-fluoro-phenyl)-5H-benzo[c]pyrimido[4,5-e]azepin-2-ylamino]-phenyl}-[4-(3-pyrrolidin-1-yl-propyl)-piperazin-1-yl]-methanone]
